Measured values published in US8022079B2, “Methods of modulating PPAR gamma-type receptors” (Galderma Research & Development, priority 2003, dated 2011).
pKd: −log10 of the molar value. Counter-ions that a name gives are not always drawn.

What was measured:
PPARα = target: T1, PPARα (Homo sapiens, UniProt Q07869); assay: Crossover-curve PPAR transactivation test (PPARα); assay type: cell-based; conditions: HeLN cells stably transfected with ERE-βGlob-Luc-SV-Neo and Gal-hPPARα; Schild regression against reference agonist; n.a. means not active; read-out: PPARα Kd app
T1 sequence (Q07869 200-468 limits assumed): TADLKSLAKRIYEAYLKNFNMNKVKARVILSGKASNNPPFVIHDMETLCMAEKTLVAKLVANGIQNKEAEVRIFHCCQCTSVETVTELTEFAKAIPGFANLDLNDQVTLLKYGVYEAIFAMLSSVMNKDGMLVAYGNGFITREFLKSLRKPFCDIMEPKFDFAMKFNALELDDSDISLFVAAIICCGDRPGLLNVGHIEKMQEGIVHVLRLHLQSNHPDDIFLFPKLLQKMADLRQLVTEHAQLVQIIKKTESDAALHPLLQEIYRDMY
Procedure: (§1) The activation of PPAR receptors with an agonist (activator) in HeLN cells leads to the expression of a reporter gene, luciferase, which, in the presence of a substrate, generates light. The modulation of the PPAR receptors is measured by quantifying the luminescence produced after incubating the cells in the presence of a reference agonist. The ligands displace the agonist from its site. The measurement of the activity is performed by quantifying the light produced. This measurement makes it possible to determine the modulatory activity of the compounds according to the invention by determining the constant that represents the affinity of the molecule for the PPAR receptor. Since this value can fluctuate depending on the basal activity and the expression of the receptor, it is referred to as Kd apparent (KdApp in nM).
(§2) To determine this constant, “crossover curves” of the test product against a reference agonist are performed in a 96-well plate: 10 concentrations of the test product plus a concentration 0 are arranged in a line, and 7 concentrations of the agonist plus a concentration 0 are arranged in a column. This represents 88 measurement points for 1 product and 1 receptor. The remaining 8 wells are used for repeatability controls.
(§3) Measurements are also taken for total agonist controls with the same products.
(§4) The HeLN cell lines used are stable transfectants containing the plasmids ERE-βGlob-Luc-SV-Neo (reporter gene) and PPAR (α, δ, γ) Gal-hPPAR. These cells are inoculated into 96-well plates at a rate of 10 000 cells per well in 100 μl of DMEM medium without phenol red and supplemented with 10% of defatted calf serum. The plates are then incubated at 37° C. and 7% CO2 for 16 hours.
(§5) The various dilutions of the test products and of the reference ligand are added at a rate of 5 μl per well. The plates are then incubated for 18 hours at 37° C. and 7% CO2. The culture medium is removed by turning over and 100 μl of a 1:1 PBS/luciferine mixture are added to each well. After 5 minutes, the plates are read by the luminescence detector.

PPARγ = target: T2, PPARγ (Homo sapiens, UniProt P37231); assay: Crossover-curve PPAR transactivation test (PPARγ); assay type: cell-based; conditions: HeLN cells stably transfected with ERE-βGlob-Luc-SV-Neo and Gal-hPPARγ; Schild regression against reference agonist; n.a. means not active; read-out: PPARγ Kd app
T2 sequence (P37231 238-505 limits assumed): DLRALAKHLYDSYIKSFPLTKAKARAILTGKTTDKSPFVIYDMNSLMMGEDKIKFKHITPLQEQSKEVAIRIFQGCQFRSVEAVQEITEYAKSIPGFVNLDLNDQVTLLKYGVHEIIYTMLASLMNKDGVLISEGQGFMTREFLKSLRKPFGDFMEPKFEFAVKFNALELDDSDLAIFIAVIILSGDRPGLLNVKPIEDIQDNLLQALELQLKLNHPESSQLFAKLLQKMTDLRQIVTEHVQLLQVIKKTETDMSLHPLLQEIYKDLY
Procedure: as §1, §2, §3, §4, §5

Row | Compound | pKd (PPARα) | pKd (PPARγ)
1 | CCCCCCCNC(=O)N(C)c1cccc(-c2ccc(C[C@H](OCC)C(=O)O)cc2)n1 [Example 10, 2(S)-Ethoxy-3-{4-[6-(3-heptyl-1-methylureido)pyrid-2-yl]phenyl}propanoic acid hydrochloride] | 6.92 | 9.30
2 | CCCCCCCNC(=O)N(C)c1ncc(-c2ccc(C[C@H](OCC)C(=O)O)cc2)s1 [Example 7, 2(S)-Ethoxy-3-{4-[2-(3-heptyl-1-methylureido)thiazol-5-yl]phenyl}propanoic acid] | 5.70 | 7.22
3 | CCCCCCCC(=O)N(C)Cc1cc(-c2ccc(C[C@H](OCC)C(=O)O)cc2)cs1 [Example 5, 2(S)-Ethoxy-3-(4-{5-[(methyloctanoylamino)methyl]thiophen-3-yl}phenyl)propanoic acid] | 5.40 | 10.22
4 | CCCCCNC(=O)N(C)c1ncc(-c2ccc(C[C@H](OCC)C(=O)O)cc2)s1 [Example 8, 2(S)-Ethoxy-3-{4-[2-(1-methyl-3-pentylureido)thiazol-5-yl]phenyl}propanoic acid] |  | 7.52

Continued by rising pKd (PPARγ), values first:

Row | pKd (PPARα) | pKd (PPARγ) | Compound
5 | 5.70 | 6.00 | CCCCCC(=O)N(C)Cc1cc(-c2ccc(C[C@H](Nc3ccccc3C(=O)c3ccccc3)C(=O)O)cc2)cs1 [Example 15, 2(S)-(2-Benzoylphenylamino)-3-(4-{5-[(hexanoylmethylamino)methyl]thiophen-3-yl}phenyl)propanoic acid]
6 |  | 6.30 | N-{3-[5-(2,4-dioxothiazolidin-5-ylmethyl)pyrid-2-yl]benzyl}-N-methyloctanoylamide [Example 4]
7 |  | 8.40 | CCCCCCCNC(=O)N(C)c1cccc(-c2ccc(CC(OCC)C(=O)O)cn2)c1 (stereo not shown) [Example 20, 2-Ethoxy-3-{6-[3-(3-heptyl-1-methylureido)phenyl]pyrid-3-yl}propanoic acid]
8 | 6.00 | 8.70 | CCCCCCCC(=O)N(C)Cc1ccc(-c2ccc(C[C@H](OCC)C(=O)O)cc2)s1 [Example 6, 2(S)-Ethoxy-3-(4-{5-[(methyloctanoylamino)methyl]thiophen-2-yl}phenyl)propanoic acid]
